In ChEMBL document CHEMBL5634166, “Structural modification of tanshinone IIA and their α-glucosidase inhibitory activity” (Bioorg Med Chem Lett, 2024):
Active and inactive are the calls of the source. The rule behind the calls is not given here.

Experiments:
[1] = target: T1, Alpha-glucosidase (Saccharomyces cerevisiae S288c) (UniProt P53341+P38158+P07265); experiment: Inhibition of yeast alpha glucosidase at 50 uM relative to control; type: protein assay
[2] = target: T2, Alpha-glucosidase (Saccharomyces cerevisiae S288c, UniProt P53341+P38158+P07265); experiment: Inhibition of Saccharomyces cerevisiae alpha-glucosidase using p-nitrophenyl-alpha-D-glucopyranoside as substrate preincubated for 5 mins followed by substrate addition and measured after 30 mins by spectrophotometric analysis; type: protein assay
[3] = target: T2, Alpha-glucosidase; experiment: Inhibition of yeast alpha-glucosidase; type: protein assay
[4] = target: T1, Alpha-glucosidase (Saccharomyces cerevisiae S288c); experiment: Competitive inhibition of yeast alpha-glucosidase assessed as […] with constant Vmax by Lineweaver-Burk plot analysis; type: protein assay
[5] = target: T2, Alpha-glucosidase; experiment: Binding affinity to yeast alpha glucosidase assessed as inhibition constant; type: protein assay
[6] = target: T2, Alpha-glucosidase; experiment: Inhibition of alpha-glucosidase (unknown origin); type: protein assay, Homo sapiens
[7] = target: T1, Alpha-glucosidase (Saccharomyces cerevisiae S288c); experiment: Potency index, ratio of acarbose IC50 to test compound IC50 for inhibition of yeast alpha glucosidase; type: protein assay

Compound | inhibition [1] | IC50 [3] | other results
COc1cc(-c2nc3c(o2)c2c4c(ccc2c2occ(C)c32)C(C)(C)CCC4)ccc1O | < 80% |  | 
C=C(C)[C@@H]1CC[C@]2(C(=O)NCC(=O)O)CC[C@]3(C)[C@H](CC[C@@H]4[C@@]5(C)Cc6c([nH]c7ccccc67)C(C)(C)[C@@H]5CC[C@]43C)[C@@H]12 |  |  | IC50 [2]: 0.04 µM
Cc1coc2c3ccc4c(c3c3oc(-c5ccccc5)nc3c12)CCCC4(C)C | > 80% | 3.51 µM | 
Cc1coc2c3ccc4c(c3c3oc(Cc5ccc(O)c(O)c5)nc3c12)CCCC4(C)C | > 80% | 0.73 µM | inhibition [4]: Active; Ki [5]: 12.1 µM
Cc1coc2c3ccc4c(c3c3oc(CCCc5ccccc5)nc3c12)CCCC4(C)C | < 80% |  | 
Cc1coc2c3ccc4c(c3c3oc(-c5ccc(Br)cc5)nc3c12)CCCC4(C)C | < 80% |  | 
COc1ccc(-c2nc3c(o2)c2c4c(ccc2c2occ(C)c32)C(C)(C)CCC4)c(OC)c1 | < 80% |  | 
Oc1ccc(/C=N/c2nnc(-c3ccc(O)cc3)o2)cc1 |  |  | IC50 [6]: 0.3 µM
Cc1coc2c3ccc4c(c3c3oc(-c5ccccc5F)nc3c12)CCCC4(C)C | < 80% |  | 
Cc1coc2c3ccc4c(c3c3oc(Cc5ccccc5)nc3c12)CCCC4(C)C | > 80% | 4.14 µM | 
Cc1coc2c3ccc4c(c3c3oc(Cc5ccc(O)cc5)nc3c12)CCCC4(C)C | > 80% | 3.21 µM | 
Cc1coc2c1C(=O)C(=O)c1c-2ccc2c1CCCC2(C)C [TANSHINONE IIA] | > 80% | 11.39 µM | 
Cc1coc2c3ccc4c(c3c3oc(CCc5ccccc5)nc3c12)CCCC4(C)C | > 80% | 9.46 µM | 
Cc1coc2c3ccc4c(c3c3oc(-c5ccc(C(F)(F)F)cc5)nc3c12)CCCC4(C)C | > 80% | 2.33 µM | 
Cc1coc2c3ccc4c(c3c3oc(-c5ccc(Cl)cc5)nc3c12)CCCC4(C)C | > 80% | 3.45 µM | Ratio IC50 [7]: 30
Cc1coc2c3ccc4c(c3c3oc(-c5ccc(Cl)c(Cl)c5)nc3c12)CCCC4(C)C | > 80% | 6.67 µM | 
Cc1coc2c3ccc4c(c3c3oc(-c5ccccc5C(F)(F)F)nc3c12)CCCC4(C)C | < 80% |  | 
